Experiments:
Type in all cases: cell-based, human
CFC-embryonic body = test: Embryonic body shape under phase contrast microscope; conditions: inhibitor present during CFC-embryonic body differentiation (LDN193189 100 nM, 4 days); compared with untreated CFC-embryonic body; FIG. 8
Experimental: The CFC-iPS fragments were distributed in the ultra-low attachment dish, followed by re-suspension in 5 ml of the embryonic body differentiation medium, which was DMED/F12 supplemented with 10% serum replacement (SR). After 4 days of suspension culture, the differentiation of a CFC-iPS-derived embryonic body (CFC-embryonic body) was induced. On day 2 and day 4 from the inducement, the CFC-embryonic body was obtained and the cell morphology was observed under phase contrast microscope. WT-iPS was cultured as the normal control by the same manner as described above, so that the differentiation of a WT-iPS-derived embryonic body (WT-embryonic body) was induced. […] 4 days after the inducement started, the CFC-embryonic body was obtained and observed under phase contrast microscope to investigate the embryonic body shape. As for the normal control, WT-iPS was cultured by the same manner as described above to induce the differentiation of a WT-iPS derived embryonic body (WT-embryonic body).

p-ERK = test: Western blotting of p-ERK in CFC-embryonic body differentiated with inhibitor; conditions: 5 μM U0126, 100 nM LDN193189 during embryonic body differentiation; compared with untreated CFC-embryonic body; FIG. 7
Experimental: (§1) Particularly, the colony of CFC-iPS induced by the same manner as described in Example <2-1> was cut into 4 pieces by using […] tissue chopper. The CFC-iPS fragments were distributed in the ultra-low attachment dish, followed by re-suspension in 5 ml of the embryonic body differentiation medium, which was DMED/F12 supplemented with 10% serum replacement (SR). After 4 days of suspension culture, the differentiation of a CFC-iPS-derived embryonic body (CFC-embryonic body) was induced. On day 2 and day 4 from the inducement, the CFC-embryonic body was obtained and the cell morphology was observed under phase contrast microscope. WT-iPS was cultured as the normal control by the same manner as described above, so that the differentiation of a WT-iPS-derived embryonic body (WT-embryonic body) was induced. […] The concentration of the protein was measured by brad-ford assay. […] The expression levels of SMAD1, p-SMAD1, ERK1, p-ERK1, ERK2, and p-ERK2 were quantified by using Image J, the program for the measurement of the pixel intensity, by which the band intensity turned into numerical value. The relative values of p-SMAD1/SMAD1, p-ERK1/ERK1, and p-ERK2/ERK2 were calculated and then the phosphorylation levels of SMAD1, ERK1, and ERK2 were compared with those of the normal control. […]

p-SMAD1 = test: Western blotting of p-SMAD1 in CFC-embryonic body differentiated with inhibitor; conditions: 5 μM U0126, 100 nM LDN193189 during embryonic body differentiation; compared with untreated CFC-embryonic body; FIG. 7
Experimental: as §1

N#CC(=C(N)Sc1ccccc1N)C(C#N)=C(N)Sc1ccccc1N [U0126, 1,4-diamino-2,3-dicyano-1,4-bis(2-aminophenylthio)butadiene]
embryonic body shape (CFC-embryonic body): normal unbroken embryonic body shape | level of p-ERK in CFC-embryonic body (p-ERK): down regulation | level of p-SMAD1 in CFC-embryonic body (p-SMAD1): reduced

Source: patent US10174288B2, “Induced pluripotent stem cell model for cardiofaciocutaneous syndrome and uses thereof” (Korea Advanced Institute of Science and Technology, priority 2013, dated 2019)
